From PMC8464836 (Biomolecules, 2021)

Key:
[1] = PAMPA assay (Polar Brain Lipid membrane); settings: for CNS (+/−): BBB permeability class predicted from PAMPA Pe; for Papp: PAMPA, pH 7.4
Experimental: In this study, it has been used as a non-cell-based in vitro assay carried out in a coated 96-well membrane filter. The filter membrane of the donor plate was coated with PBL (Polar Brain Lipid, Avanti, AL, USA) in dodecane (4 µL of 20 mg/mL PBL in dodecane) and the acceptor well was filled with 300 µL of PBS pH 7.4 buffer (VA tested compounds were dissolved first in the DMSO/phosphate-buffered saline mixture (maximum 0.5% v/v of DMSO) and subsequently diluted with phosphate-buffered saline (pH 7.4) to final concentrations of 40–100 μM in the donor wells). […] About 300 µL of the donor solution was added to the donor wells (VD) and the donor filter plate was carefully put on the acceptor plate so that coated membrane was “in touch” with both donor solution and acceptor buffer. Test compound diffused from the donor well through the lipid membrane (Area = 0.28 cm^2) to the acceptor well. The concentration of the drug in both donor and the acceptor wells were assessed after 3, 4, 5, and 6 h of incubation in quadruplicate using the UV plate reader Synergy HT (Biotek, Winooski, VT, USA) at the maximum absorption wavelength of each compound. Besides that, solution of theoretical compound concentration, simulating the equilibrium state established if the membrane were ideally permeable was prepared and assessed as well. Concentration of the compounds in the donor and acceptor well and equilibrium concentration were calculated from the standard curve and expressed as the permeability (Pe) according to the equation:(4) Pe=C×ln(1−[drug] acceptor/[drug] equilibrium) where C=(VD×VA)/(VD×VA) Area×Time

[2] = test system: CHO-K1 cells; test: MTT assay on CHO-K1 cells; format: cell-based, Chinese hamster; settings: Cricetulus griseus, cell viability, 24 h exposure, mean ± SEM, n = 3
Experimental: Standard MTT (3-[4,5-dimethylthiazol-2-yl]-2,5-diphenyltetrazolium bromide) assay (Sigma Aldrich, Prague, Czech Republic) was used according to the manufacturer´s protocol on the CHO-K1 (Chinese hamster ovary, ECACC, Salisbury, UK) in order to compare the effect of different compounds within the series. The cells were cultured according to ECACC recommended conditions and seeded in a density of 8000 per well as described previously. […] Cells were exposed to a tested compound for 24 h. Then the medium was replaced by a medium containing 10 μM of MTT and cells were allowed to produce formazan for another approximately 3 h under surveillance. Thereafter, medium with MTT was sucked out and crystals of formazan were dissolved in DMSO (100 µL). Cell viability was assessed spectrophotometrically by the amount of formazan produced. Absorbance was measured at 570 nm with 650 nm reference wavelength on Synergy HT (BioTek, Winooski, VT, USA). IC50 was then calculated from the control-subtracted triplicates using non-linear regression (four parameters) of GraphPad Prism 9 software. Final IC50 and SEM values were obtained as a mean of three independent measurements.

[3] = target: T1, dopamine receptor (D2) wild type (D2Rs) (Homo sapiens, UniProt P14416); test: D2R competition binding with [3H]-spiperone on membranes of transfected CHO cells; settings: for Ki: D2Rs, competition with 180 pM [3H]-spiperone, mean ± SEM, n = 3; for IC50: Table S1, D2Rs, mean ± S.E.M. of 3 independent experiments in triplicate, read-out: IC50 in µM ± SEM
T1 construct: host or cells: CHO cells, transient PEI transfection; membranes prepared 48 h after transfection
T1 sequence (P14416 whole entry): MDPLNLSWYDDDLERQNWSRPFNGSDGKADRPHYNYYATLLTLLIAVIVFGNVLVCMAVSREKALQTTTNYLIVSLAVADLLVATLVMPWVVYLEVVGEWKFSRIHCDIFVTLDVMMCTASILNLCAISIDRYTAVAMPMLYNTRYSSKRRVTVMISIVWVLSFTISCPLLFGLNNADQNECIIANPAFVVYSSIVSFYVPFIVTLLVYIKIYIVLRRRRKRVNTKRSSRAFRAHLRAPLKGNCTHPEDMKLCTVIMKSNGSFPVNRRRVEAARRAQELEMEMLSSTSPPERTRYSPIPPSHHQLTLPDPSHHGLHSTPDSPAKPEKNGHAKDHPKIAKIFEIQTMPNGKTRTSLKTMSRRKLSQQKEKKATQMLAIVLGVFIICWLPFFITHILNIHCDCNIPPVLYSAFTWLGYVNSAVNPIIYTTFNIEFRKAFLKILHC
Experimental: Chinese hamster ovary cells (CHO cells) were used for the binding experiments. About 24 h before transfection, CHO cells were plated on a 10 cm Petri dish at a density of 1.5 × 10^6 cells and cultivated in 10 mL DMEM/Ham’s F12 supplemented with 10% heat-inactivated fetal bovine serum (FBS).
For transfection, the desired amount of linear polyethyleneimine (PEI) 25_K (Polysciences, Eppelheim, Germany) and DNA (dopamine receptor (D2) wild type, cDNA resource centre, Bloomsberg, PA, USA) were diluted separately in phosphate buffer saline (PBS). After 20 min, DNA was added to PEI solution, mixed and left for an additional 30 min. Final concentration of reactants was 6 µg plasmid DNA and 18 µg PEI per ml. PEI/DNA complex was added (1 mL/dish) and the plates were incubated for another 24 h. Then, the medium was replaced with fresh DMEM/Ham’s F12 with 10% FBS and incubated for an additional 24 h. Cells were maintained at 37 °C in a 5% CO2-humidified atmosphere.
About 48 h after transfection, cells were washed with PBS, mechanically detached from the dish with a plastic scraper in the ice-cold PBS, and centrifuged for 3 min at 250× g. Pellet was suspended in the ice-cold homogenization medium (100 mM NaCl, 20 mM Na-HEPES, 10 mM EDTA, pH 7.4) and homogenized on ice by two 30-s strokes using Polytron homogenizer (Ultra-Turrax; Janke & Kunkel GmbH & Co. KG, IKA-Labortechnik, Staufen, Germany) with a 30-s pause between strokes. Cell homogenates were centrifuged for 5 min at 1000× g. The supernatant was collected and centrifuged for 30 min at 30,000× g. Pellets were suspended in incubation medium (100 mM NaCl, 20 mM Na-HEPES, 10 mM MgCl2, pH 7.4), left for 30 min at 4 °C and centrifuged again for 30 min at 30,000× g. The membrane pellets were kept at −80 °C until use.
All radioligand binding experiments were optimized and carried out as described by El-Fakahany and Jakubik. […] Saturation experiments were performed in 800 μL volume containing: 400 μL of the membrane suspension and 400 μL of the radioligand in six increasing concentrations (ranging from 31 to 1000 pM).
The examined compounds were diluted in incubation buffer and tested in six concentrations (ranging from 0.1 nM–1 mM). The reactions were performed in 400 µL volume containing: 100 µL of the radioligand, 100 µL of tested substances dilution, and 200 µL of the membranes.
Nonspecific binding was determined in the presence of 10 μM unlabeled sulpiride. Membrane suspensions from both saturation and binding experiments (approximately 10 μg of membrane proteins per sample) were incubated in 96-well plates for 1 h at 25 °C in the incubation medium (100 mM NaCl, 20 mM Na-HEPES,10 mM MgCl2, pH = 7.4) in a shaking incubator (25 °C; PST-60HL, Biosan, Riga, Latvia).
The binding reactions were terminated by filtration of the membranes through APFC filter plate (Millipore, Prague, Czech Republic) pre-soaked with 0.5% PEI and washed with ice-cold distilled water using a Brandel cell harvester (Brandel, Gaithersburg, MD, USA). Then, filters with labelled membranes were dried. After 24 h, scintillation cocktail (Rotiszint eco plus, Carl Roth) was added to each sample and radioactivity was quantified by liquid scintillation spectrometry using Wallac Microbeta scintillation counter (Wallac, Turku, Finland). Competition binding experiments were performed per triplicate and all experiments were performed three times. Protein concentration was determined by the Lowry method in the Peterson modification.

[4] = target: D2Rs; settings: Figure 1; cited from earlier work
[5] = target: D3Rs; settings: Figure 1; cited from earlier work

SMILES	Papp [1] [×10⁻⁶ cm/s]	Ki [3] [µM]	IC50 [3] [µM]	CNS (+/−) [1]	IC50 [2] [mM]	pKi for D2Rs [4]	pKi for D3Rs [5]	Ki [4] [µM]
O=C1CCc2ccccc2N1CCCN1CCCC1 [5a, 1-(3-(Pyrrolidin-1-yl)propyl)-3,4-dihydroquinolin-2(1H)-one]	7.3 ± 0.8	24 ± 5.8	98 ± 23	CNS + (CNS + (high BBB permeability predicted), Pe (10^−6 cm∙s^−1) > 4.0)	2 ± 0.8			
O=C1CCc2ccccc2N1CCCN1CCCCC1 [5b, 1-(3-(Piperidin-1-yl)propyl)-3,4-dihydroquinolin-2(1H)-one]	13 ± 0.1	9.7 ± 1.6	39 ± 6.4	CNS + (CNS + (high BBB permeability predicted), Pe (10^−6 cm∙s^−1) > 4.0)	1.5 ± 0.3			
CN1CCN(CCCN2C(=O)CCc3ccccc32)CC1 [5c, 1-(3-(4-Methylpiperazin-1-yl)propyl)-3,4-dihydroquinolin-2(1H)-one]	7 ± 0.4	12 ± 3.2	49 ± 13	CNS + (CNS + (high BBB permeability predicted), Pe (10^−6 cm∙s^−1) > 4.0)	2 ± 1			
O=C1CCc2ccccc2N1CCCN1CCOCC1 [5d, 1-(3-Morpholinopropyl)-3,4-dihydroquinolin-2(1H)-one]	12 ± 2	20 ± 1.6	80 ± 6.3	CNS + (CNS + (high BBB permeability predicted), Pe (10^−6 cm∙s^−1) > 4.0)	1.1 ± 0.3			
O=C1CCc2ccccc2N1CCCN1CCSCC1 [5e, 1-(3-Thiomorpholinopropyl)-3,4-dihydroquinolin-2(1H)-one]	24 ± 2.1	7.6 ± 1.9	30 ± 7.7	CNS + (CNS + (high BBB permeability predicted), Pe (10^−6 cm∙s^−1) > 4.0)	0.5 ± 0.1			
CCN(CC)CCCN1C(=O)CCc2ccccc21 [5f, 1-(3-(Diethylamino)propyl)-3,4-dihydroquinolin-2(1H)-one]	9.4 ± 0.4	37 ± 8.6	150 ± 34	CNS + (CNS + (high BBB permeability predicted), Pe (10^−6 cm∙s^−1) > 4.0)	0.9 ± 0.2			
COCCN(C)CCCN1C(=O)CCc2ccccc21 [5g, 1-(3-((2-Methoxyethyl)(methyl)amino)propyl)-3,4-dihydroquinolin-2(1H)-one]	10 ± 1.6	26 ± 6.1	106 ± 24	CNS + (CNS + (high BBB permeability predicted), Pe (10^−6 cm∙s^−1) > 4.0)	1.5 ± 0.5			
NS(=O)(=O)c1cc2c(cc1Cl)N=CNS2(=O)=O [Chlorothiazide, reference compound]	1.2 ± 0.5							
CNC(=C[N+](=O)[O-])NCCSCc1ccc(CN(C)C)o1 [Ranitidine, reference compound]	0.4 ± 0.3			CNS − (CNS − (low BBB permeability predicted), Pe (10^−6 cm∙s^−1) < 2.0)				
COc1ccccc1N1CCN(CCCN2C(=O)CCc3ccccc32)CC1 [USC-D301]						7.8	6.4	
CCc1cc(Cl)c(OC)c(C(=O)NC[C@@H]2CCCN2CC)c1O [eticlopride]								0.0001

Continued, in another order:

Papp [1] [×10⁻⁶ cm/s]	Ki [3] [µM]	IC50 [3] [µM]	SMILES	CNS (+/−) [1]	IC50 [2] [mM]	pKi for D2Rs [4]	pKi for D3Rs [5]	Ki [4] [µM]
7.7 ± 1.8	23 ± 3.6	93 ± 14	O=C1CCc2ccccc2N1CCCCN1CCCC1 [6a, 1-(4-(Pyrrolidin-1-yl)butyl)-3,4-dihydroquinolin-2(1H)-one]	CNS + (CNS + (high BBB permeability predicted), Pe (10^−6 cm∙s^−1) > 4.0)	1.1 ± 0.2			
10 ± 1.4	14 ± 2.5	57 ± 10	O=C1CCc2ccccc2N1CCCCN1CCCCC1 [6b, 1-(4-(Piperidin-1-yl)butyl)-3,4-dihydroquinolin-2(1H)-one]	CNS + (CNS + (high BBB permeability predicted), Pe (10^−6 cm∙s^−1) > 4.0)	0.8 ± 0.2			
7.1 ± 1.2	21 ± 0.6	82 ± 2.3	CN1CCN(CCCCN2C(=O)CCc3ccccc32)CC1 [6c, 1-(4-(4-Methylpiperazin-1-yl)butyl)-3,4-dihydroquinolin-2(1H)-one]	CNS + (CNS + (high BBB permeability predicted), Pe (10^−6 cm∙s^−1) > 4.0)	1.2 ± 0.2			
17 ± 2.1	41 ± 14	166 ± 56	O=C1CCc2ccccc2N1CCCCN1CCOCC1 [6d, 1-(4-Morpholinobutyl)-3,4-dihydroquinolin-2(1H)-one]	CNS + (CNS + (high BBB permeability predicted), Pe (10^−6 cm∙s^−1) > 4.0)	1.3 ± 0.2			
23 ± 3.3	9.7 ± 2.3	40 ± 8.2	O=C1CCc2ccccc2N1CCCCN1CCSCC1 [6e, 1-(4-Thiomorpholinobutyl)-3,4-dihydroquinolin-2(1H)-one]	CNS + (CNS + (high BBB permeability predicted), Pe (10^−6 cm∙s^−1) > 4.0)	0.8 ± 0.1			
7.4 ± 0.9	27 ± 4.7	103 ± 19	CCN(CC)CCCCN1C(=O)CCc2ccccc21 [6f, 1-(4-(Diethylamino)butyl)-3,4-dihydroquinolin-2(1H)-one]	CNS + (CNS + (high BBB permeability predicted), Pe (10^−6 cm∙s^−1) > 4.0)	1.8 ± 0.3			
9.5 ± 1.1	45 ± 11	188 ± 38	COCCN(C)CCCCN1C(=O)CCc2ccccc21 [6g, 1-(4-((2-Methoxyethyl)(methyl)amino)butyl)-3,4-dihydroquinolin-2(1H)-one]	CNS + (CNS + (high BBB permeability predicted), Pe (10^−6 cm∙s^−1) > 4.0)	2.1 ± 0.8			
